Experiments:
1HAEo- cells = test: MTT cell viability assay; format: cell-based, human; conditions: compounds at 10 μM, SAR screens
Experimental: (§1) MTT cell viability assay. 1HAEo-cells were grown in parallel with infected and compound treated cells in SAR and dose response experiments. 0.3 mg/mL of MTT ((3-(4,5-dimethylthiazol-2-yl)-2,5-diphenyl tetrazolium bromide)) in PBS was added to wells and incubated for 1 hour. Precipitate was dissolved in DMSO and absorbance was measured at 570 nm.

MTT cell viability assay = format: cell-based, human; conditions: human; 1HAEo- cells, dose response; read-out: CC50 (cytotoxic concentration at which cell viability is reduced by half)
Experimental: as §1

RSV-A2-GFP [1] = test: Dose response experiments, progeny virus titered on HeLa cells; format: cell-based, human RSV strain A2; conditions: 1HAEo- cells
Experimental: Dose response experiments. 1HAEo-cells were infected as described, progeny virus collected, and tittered on HeLa cells in duplicate as described in SAR 2. During initial infection in 1HAEo-cells infectious media was replaced with media containing compounds at indicated concentrations at 2 hours post infection. Proportion of virus infected cells were quantified via indirect immunofluorescence assay.
To further assess the therapeutic potential of compounds identified in SAR 1 and SAR 2, a therapeutic index (TI) of each compound was identified (e.g., ratio of […]). […] Overall, the TI was increased from 4.1 for compound 5a to 12.3 with compound 5f.

RSV-GFP-A2 = test: Mutant escape assay (serial passage); format: cell-based, human RSV strain A2; conditions: 14 serial passages over five weeks, 1HAEo- cells
Experimental: Mutant escape assay. 1HAEo-cells were infected with RSV-GFP-A2 at an initial MOI of 0.1 and serial passaged over incubation periods of 48-72 hours. Samples were collected during passaging and stored in liquid nitrogen for tittering via indirect immunofluorescence assay. Ongoing low level viral infection during passaging was confirmed by identification of green fluorescence from GFP produced by the RSV-GFP in infected cells.
An established challenge to development of antiviral pharmaceuticals is the evolution of antiviral resistance. This is pronounced for viruses with RNA genome due to an inherent error-prone process of RNA-dependent RNA polymerase replication of a viral genome. Error prone replication results in a high mutation rate of RNA viruses that leads to development of antiviral resistance. As such, development of resistant mutants to compounds 5a and 5f was undertaken, as the site of mutations could provide further insights into the nature of the viral target.

[2] = biological target: T1, RSV viral replication complex (Human respiratory syncytial virus A, UniProt P28887); test: Cell extract-based in vitro inhibition of viral transcription; format: biochemical, RSV A2
T1 construct: endogenous in cells; crude lysolecithin cell extract
T1 sequence (P28887 whole entry): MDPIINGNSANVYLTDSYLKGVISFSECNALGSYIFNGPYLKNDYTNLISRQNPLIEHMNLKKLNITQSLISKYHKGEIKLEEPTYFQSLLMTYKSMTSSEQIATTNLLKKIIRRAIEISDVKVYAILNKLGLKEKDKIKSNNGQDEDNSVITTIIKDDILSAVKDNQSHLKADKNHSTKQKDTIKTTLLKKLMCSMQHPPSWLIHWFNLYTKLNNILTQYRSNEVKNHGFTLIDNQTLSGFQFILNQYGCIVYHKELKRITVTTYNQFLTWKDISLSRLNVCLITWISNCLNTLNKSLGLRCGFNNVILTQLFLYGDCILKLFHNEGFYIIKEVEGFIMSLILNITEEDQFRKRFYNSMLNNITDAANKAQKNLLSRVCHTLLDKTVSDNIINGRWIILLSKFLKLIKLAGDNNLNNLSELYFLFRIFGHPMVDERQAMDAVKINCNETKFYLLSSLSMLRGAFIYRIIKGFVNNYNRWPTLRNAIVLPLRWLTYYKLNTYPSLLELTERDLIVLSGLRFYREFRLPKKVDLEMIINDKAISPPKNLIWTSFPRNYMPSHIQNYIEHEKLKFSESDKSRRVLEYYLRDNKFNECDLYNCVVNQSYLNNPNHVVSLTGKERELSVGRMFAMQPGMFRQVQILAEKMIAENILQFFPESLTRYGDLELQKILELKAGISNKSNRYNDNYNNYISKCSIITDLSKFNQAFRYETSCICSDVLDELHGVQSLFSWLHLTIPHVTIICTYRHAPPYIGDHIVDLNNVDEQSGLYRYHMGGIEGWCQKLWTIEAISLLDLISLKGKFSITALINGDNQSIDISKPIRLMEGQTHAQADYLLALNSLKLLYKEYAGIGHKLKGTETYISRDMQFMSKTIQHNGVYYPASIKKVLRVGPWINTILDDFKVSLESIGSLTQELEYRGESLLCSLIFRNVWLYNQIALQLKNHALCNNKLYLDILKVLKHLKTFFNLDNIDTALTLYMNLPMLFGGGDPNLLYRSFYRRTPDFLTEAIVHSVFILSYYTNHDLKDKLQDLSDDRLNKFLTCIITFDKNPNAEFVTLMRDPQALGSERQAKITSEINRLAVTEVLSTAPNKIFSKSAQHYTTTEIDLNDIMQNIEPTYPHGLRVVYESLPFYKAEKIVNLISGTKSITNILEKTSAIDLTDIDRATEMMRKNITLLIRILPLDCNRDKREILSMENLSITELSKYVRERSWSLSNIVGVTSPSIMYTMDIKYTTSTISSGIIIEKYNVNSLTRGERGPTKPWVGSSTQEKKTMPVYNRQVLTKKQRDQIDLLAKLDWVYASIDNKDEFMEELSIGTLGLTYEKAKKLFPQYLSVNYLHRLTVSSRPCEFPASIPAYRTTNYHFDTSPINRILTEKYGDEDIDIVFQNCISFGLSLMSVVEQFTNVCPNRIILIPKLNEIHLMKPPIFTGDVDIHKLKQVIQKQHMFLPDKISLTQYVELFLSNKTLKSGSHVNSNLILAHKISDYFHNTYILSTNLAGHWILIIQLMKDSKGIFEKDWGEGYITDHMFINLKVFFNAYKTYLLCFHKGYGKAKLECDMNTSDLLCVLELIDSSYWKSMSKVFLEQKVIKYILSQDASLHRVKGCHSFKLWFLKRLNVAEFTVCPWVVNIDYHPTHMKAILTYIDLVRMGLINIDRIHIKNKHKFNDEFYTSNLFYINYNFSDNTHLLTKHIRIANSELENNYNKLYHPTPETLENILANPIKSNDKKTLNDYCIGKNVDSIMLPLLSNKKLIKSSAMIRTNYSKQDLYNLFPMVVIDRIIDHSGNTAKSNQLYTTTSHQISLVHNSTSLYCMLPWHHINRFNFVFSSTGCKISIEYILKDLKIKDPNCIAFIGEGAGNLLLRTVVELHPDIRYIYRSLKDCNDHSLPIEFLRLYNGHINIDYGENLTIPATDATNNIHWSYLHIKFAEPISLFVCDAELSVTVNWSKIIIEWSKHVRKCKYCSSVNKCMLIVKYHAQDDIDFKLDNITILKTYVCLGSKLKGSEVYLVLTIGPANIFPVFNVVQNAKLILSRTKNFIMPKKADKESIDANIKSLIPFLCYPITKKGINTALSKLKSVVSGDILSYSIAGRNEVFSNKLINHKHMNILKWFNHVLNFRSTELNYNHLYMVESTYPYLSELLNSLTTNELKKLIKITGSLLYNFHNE
T1 sequence (P03421 whole entry, further chain): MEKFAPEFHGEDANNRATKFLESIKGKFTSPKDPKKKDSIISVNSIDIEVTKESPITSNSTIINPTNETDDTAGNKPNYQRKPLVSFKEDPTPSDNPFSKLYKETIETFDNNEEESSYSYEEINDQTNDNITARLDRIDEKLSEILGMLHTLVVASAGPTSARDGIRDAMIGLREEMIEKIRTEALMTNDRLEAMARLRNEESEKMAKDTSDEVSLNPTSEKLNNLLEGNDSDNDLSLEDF

RSV-A2-GFP [3] = test: Structure activity relationship screens of antiviral activity (SAR 1/SAR 2); progeny virus by indirect immunofluorescence; format: cell-based, human RSV strain A2; conditions: compounds at 10 μM, 1HAEo- cells, progeny virus on HeLa indicator cells
Experimental: (§2) Cells and virus. Hep-2 cells were grown in Opti-MEM media supplemented with 2% fetal bovine serum (FBS), 1HAEo-cells were grown in MEM media supplemented with 10% FBS, and Hela cells grown in DMEM supplemented with 10% FBS. Infections were conducted using human RSV strain A2 or RSV-A2-GFP strain described previously [Hallak, L. K.; Spillmann, D.; Collins, P. L.; Peeples, M. E. J. Virol. 2000, 74, 10508-10513]. A549 cells and Vero cells were grown in DMEM supplemented with 10% FBS and used for experiments with ZIKV (Cambodia strain).
Structure activity relationship screens of antiviral activity. 1HAEo-cells were seeded at 80% confluency and incubated overnight. In SAR1 cells were preincubated with compounds for one hour at 20 μM prior to infection, followed by dilution to 10 μM and infection with RSV-A2-GFP at an MOI of 1 for 2 hours. In SAR2 1HAEo-cells were infected with RSV-A2-GFP at an MOI of 0.5 for 2 hours without pre-incubation with compounds. At 2 hours post infection, infectious media was removed from wells to prevent carry over of infecting virus into progeny collections. Fresh media containing compounds at 10 μM was added for remainder of 48 hour incubation. […]
Progeny virus quantification via indirect immunofluorescence. […] Total cells (identified by DAPI staining) and infected cells were counted via the Operetta high content imaging system at 20x objective magnification. […]

ZIKV (Cambodia strain) = test: Zika Virus antiviral screen (plaque assay); format: cell-based; conditions: 10 μM, progeny virus quantified on Vero cells by plaque assay, n=3
Experimental: as §2
Zika Virus antiviral screen. Vero cells were pre-treated with bis(indole) compounds at 10 μM for 4 hours before infection with ZIKV at an MOI of 1. After 48 hour infection progeny ZIKV was collected, serial diluted over 6 logs, and transferred onto fresh Vero cell monolayers and incubated for 4 days. Vero cell monolayers were then fixed with 10% formaldehyde and stained with crystal violet; viral infection was quantified via plaque assay.
ZIKV constitutes a virus distinct from RSV with a markedly different intracellular replication strategy. Both viruses encode a viral RdRp essential to viral replication; however, the structure and function of RSV RdRp and ZIKV RdRp are quite different. […] RSV polymerase recognizes cis-acting ‘gene start’ and ‘gene end’ elements of the viral genome to produce subgenomic mRNAs enabling translation of viral proteins. […]

SMILES	cytotoxicity (cell viability) (1HAEo- cells)	CC50 (MTT cell viability assay) [µM]	viral replication at concentrations tolerated by the host cell (RSV-A2-GFP [1])	development of resistant virus (RSV-GFP-A2)	viral transcription from the RSV replication complex [2]	antiviral activity (inhibition of RSV infection) (RSV-A2-GFP [3])	inhibition of ZIKV infection (ZIKV (Cambodia strain))
COC(=O)C1(c2cn(C)c3ccccc23)Nc2cc(Cl)ccc2C1=O (stereo not shown) [Compound 2p]	demonstrated cytotoxicity in SAR 1	22.8	viral replication was not diminished at compound concentrations tolerated by the host cell	–	–	–	–
COC(=O)C1(c2c(-c3ccccc3)[nH]c3ccccc23)Nc2cc(Cl)ccc2C1=O (stereo not shown) [Compound 5a]	no cytotoxicity	42.5	consistently inhibited viral replication at concentrations tolerated by the host cell	did not result in the development of viruses resistant to either compound	Decreasing viral transcription from the RSV replication complex was observed in a dose dependent manner	comparable to that of the known antiviral guanosine-analogue drug ribavirin	Significant inhibition
COC(=O)C1(c2c(-c3ccc(OC)cc3)[nH]c3ccccc23)Nc2cc(Cl)ccc2C1=O (stereo not shown) [Compound 5b]	–	59.2	–	–	–	–	–
COC(=O)C1(c2c(-c3ccc(OC)cc3)[nH]c3ccccc23)Nc2cc(Br)ccc2C1=O (stereo not shown) [Compound 5f]	–	93.5	–	did not result in the development of viruses resistant to either compound	–	–	–

Source: patent US11566018B2, “Treatment of infectious disease” (The Governors of the University of Alberta, priority 2018, dated 2023)
